Measurements published in US11773127B2, “Compounds and methods for treating bacterial infections” (Washington University, priority 2017, dated 2023).
Read-outs that look alike come from different tables or passages of the source.

Target: T1, FmlHLD (Escherichia coli, UniProt P77588)
T1 construct: 6xHis (C); made in house; host or cells: E. coli C600, periplasm, pTRC99a
Test: biochemical
Type: binding, E. coli
Settings: for PI100 (percent inhibition): galactoside at 100 μM; for IC50: IC50 (μM), Table 5, Gal and GalNAc inhibition of FmlH
Procedure, shortened: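 Sialidase-treated bovine submaxillary mucin (ds-BSM) coated wells, BSA-blocked, then biotinylated FmlH^LD (20 μg/mL) with or without compound for 1 h at room temperature. Bound lectin detected by streptavidin-HRP/TMB, A450.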

[1] = read-out: PI100 (percent inhibition), galactoside at 100 μM, mean with standard error of the mean
[2] = mean with standard error of the mean, 100 µM
[3] = read-out: PI10 (percent inhibition), galactoside at 10 μM, mean with standard error of the mean
[4] = read-out: PI1 (percent inhibition), galactoside at 1 μM, mean with standard error of the mean
[5] = mean with standard error of the mean
[6] = read-out: % Inhibition at [μM] [100], compound at 100 μM, inhibition of FmlHLD binding to ds-BSM
[7] = read-out: % Inhibition at [μM] [1], compound at 1 μM, inhibition of FmlHLD binding to ds-BSM
[8] = read-out: % Inhibition at [μM] [10], compound at 10 μM, inhibition of FmlHLD binding to ds-BSM

T1 sequence (P77588 25-182): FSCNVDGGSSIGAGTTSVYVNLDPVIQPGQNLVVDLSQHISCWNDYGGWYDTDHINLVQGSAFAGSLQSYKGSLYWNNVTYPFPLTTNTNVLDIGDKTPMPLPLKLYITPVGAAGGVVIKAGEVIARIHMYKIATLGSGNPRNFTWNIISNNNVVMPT

For `OC[C@H]1O[C@H](Oc2cccc3ccccc23)[C@H](O)[C@@H](O)[C@H]1O` [Compound 18α, 1-naphthalenyl α/β-D-galactopyranoside], the inhibition at 100 µM [1] was 28.1 ± 3.4%.
For `OC[C@H]1O[C@@H](Oc2cccc3ccccc23)[C@H](O)[C@@H](O)[C@H]1O` [Compound 18β, 1-naphthalenyl α/β-D-galactopyranoside], the “PI100 (percent inhibition)” value [2] was 45.9 ± 3.7% and the inhibition at 100 µM [1] was 46%.
For `OC[C@H]1O[C@@H](Oc2ccc3ccccc3c2)[C@H](O)[C@@H](O)[C@H]1O` [Compound 19β], the “PI100 (percent inhibition)” value [2] was 78.8 ± 2.1%, the inhibition at 10 µM [3] was 14.6 ± 3.1% and the inhibition at 100 µM [1] was 79%.
`OC[C@H]1O[C@@H](Oc2cccc3ccncc23)[C@H](O)[C@@H](O)[C@H]1O` [Compound 21β, 8-isoquinolinyl β-D-galactopyranoside] was tested, and the “PI100 (percent inhibition)” value [2] was 15.2 ± 7.1% and the inhibition at 100 µM [1] was 15%.
`OC[C@H]1O[C@@H](SCCc2ccccc2)[C@H](O)[C@@H](O)[C@H]1O` [Compound 22β-thio] showed an inhibition at 10 µM [3] of 2.3 ± 2.5% and an inhibition at 100 µM [1] of 49.8 ± 2.5%.
`OC[C@H]1O[C@H](Oc2ccccc2-c2ccccc2)[C@H](O)[C@@H](O)[C@H]1O` [Compound 28α, [1,1′-biphenyl]-2-yl α/β-D-galactopyranoside] gave an inhibition at 100 µM [1] of 19.2 ± 3%.
For `OC[C@H]1O[C@@H](Oc2ccccc2-c2ccccc2)[C@H](O)[C@@H](O)[C@H]1O` [Compound 28β, [1,1′-biphenyl]-2-yl α/β-D-galactopyranoside], the “PI100 (percent inhibition)” value [2] was 91.1 ± 1.2%, the inhibition at 1 µM [4] was 8.1 ± 6% and the inhibition at 10 µM [3] was 31 ± 2.1%. For the same compound, the inhibition at 100 µM [1] was 91%.
Work on `O=C(O)c1cccc(-c2ccccc2O[C@H]2O[C@H](CO)[C@H](O)[C@H](O)[C@H]2O)c1` [Compound 29α, 2′-(α/β-D-galactopyranosyloxy)-[1,1′-Biphenyl]-3-carboxylic acid] yielded an inhibition at 100 µM [1] of 26.2 ± 5.9%.
Compound `COC(=O)c1cccc(-c2ccccc2O[C@H]2O[C@H](CO)[C@H](O)[C@H](O)[C@H]2O)c1` [Compound 30α, 2′-(α/β-D-galactopyranosyloxy)-[1,1′-Biphenyl]-3-carboxylic acid methyl ester] has an inhibition at 100 µM [1] of 13.1 ± 7.6%.
For `COC(=O)c1cccc(-c2ccccc2O[C@@H]2O[C@H](CO)[C@H](O)[C@H](O)[C@H]2O)c1` [Compound 30β, 2′-(α/β-D-galactopyranosyloxy)-[1,1′-Biphenyl]-3-carboxylic acid methyl ester], the “PI100 (percent inhibition)” value [2] was 86.6 ± 0.8%, the inhibition at 1 µM [4] was 3.7 ± 3.5% and the inhibition at 10 µM [3] was 22.4 ± 2.6%. It also gave an inhibition at 100 µM [1] of 87%.
For `OC[C@H]1O[C@H](Oc2cccc(-c3ccccc3)c2)[C@H](O)[C@@H](O)[C@H]1O` [Compound 31α, [1,1′-biphenyl]-3-yl α/β-D-galactopyranoside], the inhibition at 100 µM [1] was 45.6 ± 2.5%.
With `OC[C@H]1O[C@@H](Oc2cccc(-c3ccccc3)c2)[C@H](O)[C@@H](O)[C@H]1O` [Compound 31β, [1,1′-biphenyl]-3-yl α/β-D-galactopyranoside] the “PI100 (percent inhibition)” value [2] was 56.9 ± 6.2%, the inhibition at 10 µM [3] was 7.8 ± 5.5% and the inhibition at 100 µM [1] was 57%.
`OC[C@H]1O[C@H](Oc2ccc(-c3ccccc3)cc2)[C@H](O)[C@@H](O)[C@H]1O` [Compound 32α, [1,1′-biphenyl]-4-yl α/β-D-galactopyranoside] showed an inhibition at 10 µM [3] of 22.6 ± 3.9% and an inhibition at 100 µM [1] of 86.5 ± 1.7%.
With `OC[C@H]1O[C@@H](Oc2ccc(-c3ccccc3)cc2)[C@H](O)[C@@H](O)[C@H]1O` [Compound 32β, [1,1′-biphenyl]-4-yl α/β-D-galactopyranoside] the inhibition at 100 µM [1] was 30%.
For `CC(=O)N[C@H]1[C@@H](Oc2ccc([N+](=O)[O-])cc2)O[C@H](CO)[C@H](O)[C@@H]1O[C@@H]1O[C@H](CO)[C@H](O)[C@H](O)[C@H]1O` [Compound 33, p-nitrophenyl Gal-β1-3-GalNAc, reference compound], the “PI100 (percent inhibition)” value [5] was 15.3 ± 3.1%.
In the case of `CC(=O)N[C@H]1[C@H](Oc2ccc([N+](=O)[O-])cc2)O[C@H](CO)[C@@H](O)[C@@H]1O[C@@H]1O[C@H](CO)[C@H](O)[C@H](O)[C@H]1O` [Compound 34, p-nitrophenyl Gal-β1-3-GlcNAc, reference compound], the “PI100 (percent inhibition)” value [5] is reported as −3.6 ± 1.0%.
In the case of `O=[N+]([O-])c1ccc(O[C@@H]2O[C@H](CO[C@@H]3O[C@H](CO)[C@H](O)[C@H](O)[C@H]3O)[C@H](O)[C@H](O)[C@H]2O)cc1` [Compound 35, p-nitrophenyl Gal-β1-6-Gal, reference compound], the “PI100 (percent inhibition)” value [5] is reported as 19.4 ± 1.6%.
Work on `OC[C@H]1O[C@H](Oc2ccccc2-c2ccccc2)[C@H](O)[C@@H](O)[C@H]1O` [Compound 113f1] yielded an inhibition at 100 µM [6] of 19.2%.
In the case of `OC[C@H]1O[C@@H](Oc2ccccc2-c2ccccc2)[C@H](O)[C@@H](O)[C@H]1O` [Compound 113f2], the inhibition at 1 µM [7] is reported as 8.1%, the inhibition at 10 µM [8] is reported as 31% and the inhibition at 100 µM [6] is reported as 91.1%.
`OC[C@H]1O[C@H](Oc2cccc(-c3ccccc3)c2)[C@H](O)[C@@H](O)[C@H]1O` [Compound 114af1] was tested, and the inhibition at 100 µM [6] was 45.6%.
`OC[C@H]1O[C@@H](Oc2cccc(-c3ccccc3)c2)[C@H](O)[C@@H](O)[C@H]1O` [Compound 114af2] gave an inhibition at 10 µM [8] of 7.8% and an inhibition at 100 µM [6] of 56.9%.
In the case of `OC[C@H]1O[C@H](Oc2ccc(-c3ccccc3)cc2)[C@H](O)[C@@H](O)[C@H]1O` [Compound 114bf1], the inhibition at 10 µM [8] is reported as 22.6% and the inhibition at 100 µM [6] is reported as 86.5%.
`OC[C@H]1O[C@@H](Oc2ccc(-c3ccccc3)cc2)[C@H](O)[C@@H](O)[C@H]1O` [Compound 114bf2] was tested, and the inhibition at 100 µM [6] was 30%.
`OC[C@H]1O[C@H](Oc2cccc3ccccc23)[C@H](O)[C@@H](O)[C@H]1O` [Compound 115af1] showed an inhibition at 100 µM [6] of 28.1%.
Work on `OC[C@H]1O[C@@H](Oc2cccc3ccccc23)[C@H](O)[C@@H](O)[C@H]1O` [Compound 115af2] yielded an inhibition at 100 µM [6] of 45.9%.
In the case of `COC(=O)c1cccc(-c2ccccc2O[C@H]2O[C@H](CO)[C@H](O)[C@H](O)[C@H]2O)c1` [Compound 116e], the inhibition at 100 µM [6] is reported as 13.1%.
Work on `COC(=O)c1cccc(-c2ccccc2O[C@@H]2O[C@H](CO)[C@H](O)[C@H](O)[C@H]2O)c1` [Compound 116f] yielded an inhibition at 1 µM [7] of 3.7%, an inhibition at 10 µM [8] of 22.4% and an inhibition at 100 µM [6] of 86.6%.
`Cc1ccccc1O[C@H]1O[C@H](CO)[C@H](O)[C@H](O)[C@H]1O` [Compound 135a] gave an inhibition at 100 µM [6] of 30%.
In the case of `Cc1ccccc1O[C@@H]1O[C@H](CO)[C@H](O)[C@H](O)[C@H]1O` [Compound 135b], the inhibition at 1 µM [7] is reported as 1.81%, the inhibition at 10 µM [8] is reported as 28.2% and the inhibition at 100 µM [6] is reported as 87.3%.
Compound `N#Cc1ccccc1O[C@H]1O[C@H](CO)[C@H](O)[C@H](O)[C@H]1O` [Compound 137a] has an inhibition at 100 µM [6] of 17.8%.
With `N#Cc1ccccc1O[C@@H]1O[C@H](CO)[C@H](O)[C@H](O)[C@H]1O` [Compound 137b] the inhibition at 1 µM [7] was 12.1%, the inhibition at 10 µM [8] was 30.4% and the inhibition at 100 µM [6] was 94.5%.
`COc1cc(OC)cc(O[C@@H]2O[C@H](CO)[C@H](O)[C@H](O)[C@H]2O)c1` [Compound 151d] gave an inhibition at 10 µM [8] of 11.7% and an inhibition at 100 µM [6] of 76.4%.
Work on `N#Cc1ccc(O[C@@H]2O[C@H](CO)[C@H](O)[C@H](O)[C@H]2O)cc1` [Compound 152b] yielded an inhibition at 1 µM [7] of 9.47%, an inhibition at 10 µM [8] of 19.2% and an inhibition at 100 µM [6] of 85.7%.
`Cc1ccc(O[C@@H]2O[C@H](CO)[C@H](O)[C@H](O)[C@H]2O)cc1` [Compound 153a] showed an inhibition at 1 µM [7] of 4.59%, an inhibition at 10 µM [8] of 16.5% and an inhibition at 100 µM [6] of 85.8%.
`OC[C@H]1O[C@@H](Oc2ccccc2Cl)[C@H](O)[C@@H](O)[C@H]1O` [Compound 154c] was tested, and the inhibition at 1 µM [7] was 7.95%, the inhibition at 10 µM [8] was 20.7% and the inhibition at 100 µM [6] was 90.5%.
With `O=C(O)c1cccc(-c2ccccc2O[C@H]2O[C@H](CO)[C@H](O)[C@H](O)[C@H]2O)c1` [Compound 200a] the inhibition at 100 µM [6] was 26.2%.
For `COc1ccc(C(=O)O)cc1-c1ccccc1O[C@@H]1O[C@H](CO)[C@H](O)[C@H](O)[C@H]1NC(C)=O` [Compound 2051, 2′-(((2S,3R,4R,5R,6R)-3-acetamido-4,5-dihydroxy-6-(hydroxymethyl)tetrahydro-2H-pyran-2-yl)oxy)-6-methoxy-[1,1′-biphenyl]-3-carboxylic acid], the “inhibitory potency against FmlH, in words” value (ELISA-based competition assay) was “weakest activity”, the IC50 was 3.87 µM and the “drop in activity relative to 29β-NAc” value (IC50 ratio) was 6 fold. For the same compound, the inhibition at 0.1 µM (read-out: PI (0.1) (average percent inhibition), compound at 100 nM, Table 4) was 0% and the inhibition at 1 µM (read-out: PI(1) (average percent inhibition), compound at 1 μM, Table 4) was 15.9%.
For `CC(=O)N[C@@H]1[C@H](Oc2ccccc2-c2cc(C(=O)O)cc([N+](=O)[O-])c2)OC(CO)[C@H](O)[C@@H]1O` (stereo partly drawn) [Compound 3029, 2′-(((2S,3S,4R,5R)-3-acetamido-4,5-dihydroxy-6-(hydroxymethyl)tetrahydro-2H-pyran-2-yl)oxy)-5-nitro-[1,1′-biphenyl]-3-carboxylic acid], the IC50 was 2.2 µM.
Compound `CC(=O)N[C@@H]1[C@H](Oc2ccccc2-c2cccc(NC(=O)C(F)(F)F)c2)OC(CO)[C@H](O)[C@@H]1O` (stereo partly drawn) [Compound 3044, N-(2′-(((2S,3S,4R,5R)-3-acetamido-4,5-dihydroxy-6-(hydroxymethyl)tetrahydro-2H-pyran-2-yl)oxy)-[1,1′-biphenyl]-3-yl)-2,2,2-trifluoroacetamide] has an IC50 of 0.37 µM.
`CC(=O)N[C@H]1[C@H](Oc2ccccc2-c2cccc(NS(=O)(=O)C(F)(F)F)c2)O[C@H](CO)[C@H](O)[C@@H]1O` [Compound 3049, N-((2S,3R,4R,5R,6R)-4,5-dihydroxy-6-(hydroxymethyl)-2-((3′-((trifluoromethyl)sulfonamido)-[1,1′-biphenyl]-2-yl)oxy)tetrahydro-2H-pyran-3-yl) acetamide] was tested, and the IC50 was 1.17 µM.
